Measured values taken from patent US5814654A, “Substituted guanidine derivatives” (Sumitomo Pharmaceuticals Company, Limited, priority 1996, dated 1998).

Target: T1, Na+/H+ exchange transport system (Rattus norvegicus, UniProt P26431)
T1 construct: using the vascular smooth muscle cells isolated from the rat thoracic aorta; endogenous in cells; host or cells: vascular smooth muscle cells isolated from the rat thoracic aorta
Assay: Inhibitory effect on the Na+/H+ exchange transport system (in vitro), change in intracellular pH during acid loading
Format: cell-based
Conditions: vascular smooth muscle cells isolated from the rat thoracic aorta
Description: Inhibitory effect on the Na+/H+ exchange transport system (in vitro)
The test was carried out according to the method of Yamori et al. (J. Hypertension, 8, 153 (1990)). In detail, inhibitory effect on the Na+/H+ exchange transport system was evaluated by the change in intracellular pH during acid loading, using the vascular smooth muscle cells isolated from the rat thoracic aorta.

T1 sequence (P26431 whole entry): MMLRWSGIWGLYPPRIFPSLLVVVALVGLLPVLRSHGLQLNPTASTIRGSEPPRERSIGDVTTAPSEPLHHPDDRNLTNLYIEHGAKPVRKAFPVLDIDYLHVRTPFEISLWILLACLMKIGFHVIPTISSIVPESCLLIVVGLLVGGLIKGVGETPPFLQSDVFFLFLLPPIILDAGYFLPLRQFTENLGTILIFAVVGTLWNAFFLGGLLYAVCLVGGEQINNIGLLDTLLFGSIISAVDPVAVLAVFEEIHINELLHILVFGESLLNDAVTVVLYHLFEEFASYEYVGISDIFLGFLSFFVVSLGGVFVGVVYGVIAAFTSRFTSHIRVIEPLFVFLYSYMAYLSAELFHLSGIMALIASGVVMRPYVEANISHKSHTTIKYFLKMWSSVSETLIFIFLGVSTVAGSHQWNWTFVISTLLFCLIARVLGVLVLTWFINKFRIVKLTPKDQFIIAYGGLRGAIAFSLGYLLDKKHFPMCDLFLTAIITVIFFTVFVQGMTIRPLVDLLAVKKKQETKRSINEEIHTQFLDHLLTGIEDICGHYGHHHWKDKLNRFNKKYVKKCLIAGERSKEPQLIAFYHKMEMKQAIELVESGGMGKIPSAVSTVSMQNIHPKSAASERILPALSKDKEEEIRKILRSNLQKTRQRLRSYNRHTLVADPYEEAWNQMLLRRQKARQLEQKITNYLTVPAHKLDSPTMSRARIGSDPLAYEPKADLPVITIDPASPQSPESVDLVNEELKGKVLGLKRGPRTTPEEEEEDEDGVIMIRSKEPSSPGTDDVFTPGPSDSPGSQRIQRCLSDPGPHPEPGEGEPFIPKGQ

In order of falling IC50:
1. NC(N)=NC(=O)c1[nH]c2cccc3c2c1CCC3=O [Example 1, N-(aminoiminomethyl)-1,3,4,5-tetrahydro-5-oxo-benz[cd]indole-2-carboxamidemethanesulfonate]  4000 nM
2. NC(N)=NC(=O)c1[nH]c2cccc3c2c1CCC3 [Example 3, N-(aminoiminomethyl)-1,3,4,5-tetrahydro-benz[cd]indole-2-carboxamide methanesulfonate]  700 nM
3. Cn1c(C(=O)N=C(N)N)c2c3c(cccc31)CCC2 [Example 2, N-(aminoiminomethyl)-1,3,4,5-tetrahydro-1-methyl-benz[cd]indole-2-carboxamide methanesulfonate]  150 nM
